pIC50: −log10 of the molar value. Structures can show the parent of a compound that is named as a salt. Where two headings read alike, the source gives them in different places.
What was measured:
[1] = molecular target: T1, β-lactamase P99 (Enterobacter cloacae, UniProt P05364); assay: biochemical; assay type: biochemical
T1 construct: The β-lactamases are isolated from bacterial strains resistant to penicillins and to cephalosporins; endogenous in cells; host or cells: E. cloacae 293HT6 (soluble fraction of French-press lysate, 100 000 G supernatant)
T1 sequence (P05364 21-381): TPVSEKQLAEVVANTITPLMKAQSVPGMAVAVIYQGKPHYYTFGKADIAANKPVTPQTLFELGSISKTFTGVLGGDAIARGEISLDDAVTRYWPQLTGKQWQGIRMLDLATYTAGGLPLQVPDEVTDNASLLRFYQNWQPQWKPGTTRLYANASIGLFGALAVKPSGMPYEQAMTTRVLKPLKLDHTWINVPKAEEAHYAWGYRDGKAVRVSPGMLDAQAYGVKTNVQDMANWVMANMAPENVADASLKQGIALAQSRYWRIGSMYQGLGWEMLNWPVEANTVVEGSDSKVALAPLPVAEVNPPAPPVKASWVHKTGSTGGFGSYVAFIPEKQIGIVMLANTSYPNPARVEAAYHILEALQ
Procedure: (§1) A. Preparation of the β-lactamases Tem˜1 and P99
(§2) The β-lactamases are isolated from bacterial strains resistant to penicillins and to cephalosporins (Tem1 and P99 are produced by E. coli 250HT21 and E. Cloacae 293HT6, respectively).
(§3) The bacteria are cultured in heart-brain broth at 37 g/l (DIFCO), at 37° C. They are harvested at the end of the exponential phase, cooled and centrifuged. The bacterial pellets are taken up in 50 mM sodium phosphate buffer pH 7.0 and again centrifuged. The bacteria are taken up in two volumes of this same buffer and lyzed by means of a French-Press kept at 4° C. After centrifugation for 1 h at 100 000 G, at 4° C., the supernatants containing the soluble fraction of the bacterial extracts are recovered and frozen at −80° C.
(§4) B. Determination of the β-lactamase Activity
(§5) The method uses, as substrate, Nitrocefin (OXOID), a chromogenic cephalosporin, whose product of hydrolysis by Beta-lactamases is red and absorbs at 485 nm. The β-lactamase activity is kinetically determined by measuring the variation in absorbance at 485 nm resulting from the hydrolysis of the substrate on a plate spectrophotometer (Spectra Max Plus from Molecular Devices). The experiments are performed at 37° C. The quantity of enzyme was normalized and the measurements are performed at the initial speed.
(§6) C. Determination of the β-lactamase Inhibiting Activity
(§7) Two measurements are carried out, without preincubation and with preincubation of the enzyme and of the inhibitor (5 min), in order to test the irreversibility of the reaction. The products are tested at 6 or 8 concentrations in duplicate. The reaction mixture contains 100 μM of Nitrocefin and 50 mM sodium phosphate buffer pH 7.0. D. Calculations of the IC50 Values
(§8) The rates of hydrolysis are measured with and without inhibitor. The concentration of inhibitor which inhibits by 50% the reaction of hydrolysis of Nitrocefin by the enzyme (IC50) is determined. The data processing is carried out with the aid of the GraFit software (Erathycus Software).

[2] = molecular target: T2, β-lactamase TEM1 (Escherichia coli, UniProt P62593); assay: β-lactamase inhibiting activity (Nitrocefin hydrolysis); assay type: biochemical, E. coli 250HT21; settings: for IC50: 100 μM Nitrocefin, 50 mM sodium phosphate buffer pH 7.0, 37° C., read-out: IC50 nM/TEM1
T2 construct: The β-lactamases are isolated from bacterial strains resistant to penicillins and to cephalosporins; endogenous in cells; host or cells: E. coli 250HT21 (soluble fraction of French-press lysate, 100 000 G supernatant)
T2 sequence (P62593 24-286 limits assumed): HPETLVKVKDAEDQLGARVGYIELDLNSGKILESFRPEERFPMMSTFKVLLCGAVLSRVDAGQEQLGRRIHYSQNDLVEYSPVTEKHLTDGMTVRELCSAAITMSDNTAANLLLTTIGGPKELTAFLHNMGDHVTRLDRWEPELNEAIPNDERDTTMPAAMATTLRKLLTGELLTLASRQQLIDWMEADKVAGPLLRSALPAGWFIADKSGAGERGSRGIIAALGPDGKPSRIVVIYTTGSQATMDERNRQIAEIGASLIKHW
Procedure: as §1, §2, §3, §4, §5, §6, §7, §8

[3] = 100 μM Nitrocefin, 50 mM sodium phosphate buffer pH 7.0, 37° C.

| Structure (SMILES) | IC50 [1, 3] [nM] | pIC50 [2] | IC50 [2] [nM] | IC50 ([1]; pH 7) [nM] |
| --- | --- | --- | --- | --- |
| O=C1N2Cc3c(cnn3-c3ccccc3)C(C2)N1OS(=O)(=O)O (centres unmarked) [Example 46, Sodium Salt of 1,4,5,8-tetrahydro-1-phenyl-5-(sulfoxy)-6H-4,7-methanopyrazolo[3,4-e][1,3]diazepin-6-one] | 80 | 8.30 |  |  |
| COc1ccc(Cn2ncc3c2CN2CC3N(OS(=O)(=O)O)C2=O)cc1 (centres unmarked) [Example 18, Sodium Salt of 1,4,5,8-tetrahydro-1-[(4-methoxyphenyl)methyl]-5-(sulfoxy)-6H-4,7-methanopyrazolo[3,4-e][1,3]diazepin-6-one] | 13 |  | 5 |  |
| Cc1ccccc1-c1cc2c(s1)[C@@H](C(N)=O)N1C[C@H]2N(OS(=O)(=O)O)C1=O (relative stereo) [Example 24, Sodium Salt of Trans-4,5,6,8-tetrahydro-2-(2-methylphenyl)-6-oxo-5-(sulfoxy)-4,7-methano-7H-thieno[2,3-e][1,3]diazepine-8-carboxamide] | 10 |  | 2 |  |
| CCOC(=O)[C@H]1c2cccc(OC(=O)Nc3ccccc3)c2[C@@H]2CN1C(=O)N2OS(=O)(=O)O (relative stereo) [Example 28, Sodium Salt of Ethyl Trans-1,2,3,5-tetrahydro-3-oxo-9-[[(phenylamino)carbonyl]oxy]-2-(sulfoxy)-1,4-methano-4H-2,4-benzodiazepine-5-carboxylate] | 25 |  | 33 |  |
| COC(=O)[C@@H]1c2nn(CCc3ccccc3)cc2[C@H]2CN1C(=O)N2OS(=O)(=O)O (relative stereo) [Example 3, Triethylammonium Salt of Methyl trans-2,5,6,8-tetrahydro-6-oxo-2-(2-phenylethyl)-5-(sulfoxy)-4H-4,7-methanopyrazolo[3,4-e][1,3]diazepine-8-carboxylate] | 11 |  | 2 |  |
| CCOC(=O)[C@H]1c2ccc(OS(=O)(=O)C(F)(F)F)cc2[C@@H]2CN1C(=O)N2OS(=O)(=O)O (relative stereo) [Example 40, Sodium Salt of ethyl trans-1,2,3,5-tetrahydro-3-oxo-2-(sulfoxy)-8-[[(triluoromethyl)sulfonyl]oxy]-1,4-methano-4H-2,4-benzodiazepine-5-carboxylate] |  |  | 11 | 12 |
| NC(=O)[C@H]1c2ccc(OCCOS(=O)(=O)O)cc2[C@@H]2CN1C(=O)N2OS(=O)(=O)O (relative stereo) [Example 41, Disodium Salt of trans-1,2,3,5-tetrahydro-3-oxo-2-(sulfoxy)-8-[2-(sulfoxy)ethoxy]-1,4-methano-4H-2,4-benzodiazepine-5-carboxamide] | 29 |  | 9 |  |
| CCOC(=O)C1c2ccc(OC(=O)Nc3ccccc3)cc2C2CN1C(=O)N2OS(=O)(=O)O (stereo not drawn) [Example 37, Sodium Salt of Ethyl Trans-1,2,3,5-tetrahydro-3-oxo-8-[[(phenylamino)carbonyl]oxy]-2-(sulfoxy)-1,4-methano-4H-2,4-benzodiazepine-5-carboxylate] | 21 | 7.39 |  |  |
| NC(=O)C1c2nn(-c3ccccc3)cc2C2CN1C(=O)N2OS(=O)(=O)O (stereo not drawn) [Example 45, Sodium Salt of trans-2,5,6,8-tetrahydro-6-oxo-2-phenyl-5-(sulfoxy)-4H-4,7-methanopyrazolo[3,4-e][1,3]diazepine-8-carboxamide] | 12 | 9.00 |  |  |
| CCOC(=O)[C@@H]1c2c(-c3ccc(F)cc3)csc2[C@H]2CN1C(=O)N2OS(=O)(=O)O (relative stereo) [Example 44, Sodium Salt of ethyl trans-3-(4-fluorophenyl)-4,6,7,8-tetrahydro-6-oxo-7-(sulfoxy)-5,8-methano-5H-thieno[2,3-e][1,3]diazepine-4-carboxylate] |  |  | 34 | 2 |
| COC(=O)[C@@H]1c2nn(CC(=O)O)cc2[C@H]2CN1C(=O)N2OS(=O)(=O)O (relative stereo) [Example 9, Di(triethylammonium) Salt of Trans-5,6-dihydro-8-(methoxycarbonyl)-6-oxo-5-sulfoxy-4H-4,7-methanopyrazolo[3,4-e][1,3]diazepine-2(8H)-acetic acid] | 50 |  | 60 |  |
| NC(=O)[C@@H]1c2c(cnn2-c2ccccc2)[C@H]2CN1C(=O)N2OS(=O)(=O)O (relative stereo) [Example 47, Sodium Salt of trans-4,5,6,8-tetrahydro-6-oxo-1-phenyl-5-(sulfoxy)-1H-4,7-methanopyrazolo[3,4-e][1,3]diazepine-8-carboxamide] | 3 |  | 12 |  |
| CCOC(=O)Cn1cc2c(n1)[C@@H](C(=O)OC)N1C[C@H]2N(OS(=O)(=O)O)C1=O (relative stereo) [Example 5, Triethylammonium Salt of Ethyl Trans-5,6-dihydro-8-(methoxycarbonyl)-6-oxo-5-(sulfoxy)-4H-4,7-methanopyrazolo[3,4-e][1,3]diazepine-2(8H)-acetate] | 17 |  | 13 |  |
| COCCOCOc1ccc2c(c1)[C@@H]1CN(C(=O)N1OS(=O)(=O)O)[C@H]2C(=O)NOC (relative stereo) [Example 33, Sodium Salt of Trans-1,2,3,5-tetrahydro-N-methoxy-8-[(2-methoxyethoxy)methoxy]-3-oxo-2-(sulfoxy)-1,4-methano-4H-2,4-benzodiazepine-5-carboxamide] | 17 |  | 56 |  |
| CCNC(=O)Oc1ccc2c(c1)[C@@H]1CN(C(=O)N1OS(=O)(=O)O)[C@H]2C(=O)OCC (relative stereo) [Example 38, Sodium Salt of Ethyl Trans-8-[[(ethylamino)carbonyl]oxy]-1,2,3,5-tetrahydro-3-oxo-2-(sulfoxy)-1,4-methano-4H-2,4-benzodiazepine-5-carboxylate] | 19 |  | 59 |  |
| COC(=O)C1c2sc(-c3ccc(F)cc3)cc2C2CN1C(=O)N2OS(=O)(=O)O (stereo not drawn) [Example 19, Sodium Salt of Methyl Trans-2-(4-fluorophenyl)-4,5,6,8-tetrahydro-6-oxo-5-(sulfoxy)-4,7-methano-7H-thieno[2,3-e][1,3]diazepine-8-carboxylate] | 16 | 8.30 |  |  |
| COC(=O)[C@@H]1c2sc(C(N)=O)cc2[C@H]2CN1C(=O)N2OS(=O)(=O)O (relative stereo) [Example 21, Sodium Salt of Methyl Trans-2-(aminocarbonyl)-4,5,6,8-tetrahydro-6-oxo-5-(sulfoxy)-4,7-methano-7H-thieno[2,3-e][1,3]diazepine-8-carboxylate] | 69 |  | 7 |  |
| COC(=O)[C@@H]1c2c(cnn2C(N)=O)[C@@H]2CN1C(=O)N2OS(=O)(=O)O (relative stereo) [Example 10, Pyridinium Salt of Methyl Trans-1-(aminocarbonyl)-4,5,6,8-tetrahydro-6-oxo-5-(sulfoxy)-1H-4,7-methanopyrazolo[3,4-e][1,3]diazepine-8-carboxylate] | 18 | 7.92 |  |  |
| COC(=O)C1c2nn(C(N)=O)cc2C2CN1C(=O)N2OS(=O)(=O)O (stereo not drawn) [Example 11, Pyridinium Salt of Methyl Trans-2-(aminocarbonyl)-2,5,6,8-tetrahydro-6-oxo-5-(sulfoxy)-4H-4,7-methanopyrazolo[3,4-e][1,3]diazepine-8-carboxylate] | 39 | 7.96 |  |  |
| COC(=O)C1c2c(cnn2CCc2ccccc2)C2CN1C(=O)N2OS(=O)(=O)O (stereo not drawn) [Example 2, Triethylammonium Salt of Methyl trans-4,5,6,8-tetrahydro-6-oxo-1-(phenylethyl)-5-(sulfoxy)-1H-4,7-methanopyrazolo[3,4-e][1,3]diazepine-8-carboxylate] | 20 | 7.80 |  |  |
| CCOC(=O)Cn1ncc2c1C(C(=O)OC)N1CC2N(OS(=O)(=O)O)C1=O (stereo not drawn) [Example 4, Triethylammonium Salt of Ethyl Trans-4,5,6,8-tetrahydro-8-(methoxycarbonyl)-6-oxo-5-(sulfoxy)-1H-4,7-methanopyrazolo[3,4-e][1,3]diazepine-1-acetate] | 7 | 7.47 |  |  |
| CCc1ccccc1-c1cc2c(s1)[C@@H](C(N)=O)N1C[C@H]2N(OS(=O)(=O)O)C1=O (relative stereo) [Example 26, Sodium Salt of Trans-2-(2-ethylphenyl)-4,5,6,8-tetrahydro-6-oxo-5-(sulfoxy)-4,7-methano-7H-thieno[2,3-e][1,3]diazepine-8-carboxamide] | 6 |  | 1 |  |

Reference: US7439253B2, “Heterocyclic compounds, their preparation and their use as medicaments, in particular as antibacterials and beta-lactamase inhibitors” (Novexel, priority 2002, dated 2008)
